Assay results: the kinase profiling compilation of Christmann-Franck et al. (2016)

Assays:
Assay in all cases: KINOMEscan competition binding
Settings in all cases: compound 10.0 µM
ACVR1B (human) = ACVR1B (human) (UniProt P36896)
BMPR2 (human) = BMPR2 (human) (UniProt Q13873)
CDC42BPB (human) = CDC42BPB (human) (UniProt Q9Y5S2)
CDK16 (human) = CDK16 (human) (UniProt Q00536)
CDK4 CCND1 (human) = CDK4 CCND1 (human) (UniProt P11802+P24385)
CDKL5 (human) = CDKL5 (human) (UniProt O76039)
CLK2 (human) = CLK2 (human) (UniProt P49760)
CSK (human) = CSK (human) (UniProt P41240)
EPHA3 (human) = EPHA3 (human) (UniProt P29320)
FGR (human) = FGR (human) (UniProt P09769)
FYN (human) = FYN (human) (UniProt P06241)
FYN (human), sequence (P06241 whole entry, looked up): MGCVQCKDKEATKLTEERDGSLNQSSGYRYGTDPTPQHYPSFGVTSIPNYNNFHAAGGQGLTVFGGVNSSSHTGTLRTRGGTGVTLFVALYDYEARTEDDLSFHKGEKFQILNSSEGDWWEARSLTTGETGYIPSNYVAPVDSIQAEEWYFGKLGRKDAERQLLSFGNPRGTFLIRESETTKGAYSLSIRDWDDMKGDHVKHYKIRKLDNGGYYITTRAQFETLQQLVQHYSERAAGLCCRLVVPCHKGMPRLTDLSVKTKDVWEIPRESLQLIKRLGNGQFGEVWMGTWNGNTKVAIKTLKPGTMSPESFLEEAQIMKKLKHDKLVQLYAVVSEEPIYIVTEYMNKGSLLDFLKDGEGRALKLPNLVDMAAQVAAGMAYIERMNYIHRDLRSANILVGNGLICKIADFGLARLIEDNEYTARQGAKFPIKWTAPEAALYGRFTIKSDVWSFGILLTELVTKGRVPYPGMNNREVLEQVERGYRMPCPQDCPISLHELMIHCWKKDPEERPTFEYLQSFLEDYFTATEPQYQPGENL

HIPK1 (human) = HIPK1 (human) (UniProt Q86Z02)
IGF1R (human) = IGF1R (human) (UniProt P08069)
IRAK4 (human) = IRAK4 (human) (UniProt Q9NWZ3)
IRAK4 (human), sequence (Q9NWZ3 whole entry, looked up): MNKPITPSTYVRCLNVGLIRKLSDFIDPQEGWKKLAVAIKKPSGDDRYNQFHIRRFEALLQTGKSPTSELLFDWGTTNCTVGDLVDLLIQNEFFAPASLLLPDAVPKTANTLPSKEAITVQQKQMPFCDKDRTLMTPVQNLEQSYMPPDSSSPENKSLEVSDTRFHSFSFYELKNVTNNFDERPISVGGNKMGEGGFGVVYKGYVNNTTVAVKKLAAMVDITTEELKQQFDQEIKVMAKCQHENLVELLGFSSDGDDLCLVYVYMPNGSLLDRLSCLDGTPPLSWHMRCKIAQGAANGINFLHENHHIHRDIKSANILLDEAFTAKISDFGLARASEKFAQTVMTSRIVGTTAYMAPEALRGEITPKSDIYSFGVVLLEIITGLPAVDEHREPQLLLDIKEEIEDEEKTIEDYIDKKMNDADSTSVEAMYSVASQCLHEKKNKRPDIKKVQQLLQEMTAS

MAP2K1 (human) = MAP2K1 (human) (UniProt Q02750)
MAP3K13 (human) = MAP3K13 (human) (UniProt O43283)
MAP4K1 (human) = MAP4K1 (human) (UniProt Q92918)
MAP4K1 (human), sequence (Q92918 whole entry, looked up): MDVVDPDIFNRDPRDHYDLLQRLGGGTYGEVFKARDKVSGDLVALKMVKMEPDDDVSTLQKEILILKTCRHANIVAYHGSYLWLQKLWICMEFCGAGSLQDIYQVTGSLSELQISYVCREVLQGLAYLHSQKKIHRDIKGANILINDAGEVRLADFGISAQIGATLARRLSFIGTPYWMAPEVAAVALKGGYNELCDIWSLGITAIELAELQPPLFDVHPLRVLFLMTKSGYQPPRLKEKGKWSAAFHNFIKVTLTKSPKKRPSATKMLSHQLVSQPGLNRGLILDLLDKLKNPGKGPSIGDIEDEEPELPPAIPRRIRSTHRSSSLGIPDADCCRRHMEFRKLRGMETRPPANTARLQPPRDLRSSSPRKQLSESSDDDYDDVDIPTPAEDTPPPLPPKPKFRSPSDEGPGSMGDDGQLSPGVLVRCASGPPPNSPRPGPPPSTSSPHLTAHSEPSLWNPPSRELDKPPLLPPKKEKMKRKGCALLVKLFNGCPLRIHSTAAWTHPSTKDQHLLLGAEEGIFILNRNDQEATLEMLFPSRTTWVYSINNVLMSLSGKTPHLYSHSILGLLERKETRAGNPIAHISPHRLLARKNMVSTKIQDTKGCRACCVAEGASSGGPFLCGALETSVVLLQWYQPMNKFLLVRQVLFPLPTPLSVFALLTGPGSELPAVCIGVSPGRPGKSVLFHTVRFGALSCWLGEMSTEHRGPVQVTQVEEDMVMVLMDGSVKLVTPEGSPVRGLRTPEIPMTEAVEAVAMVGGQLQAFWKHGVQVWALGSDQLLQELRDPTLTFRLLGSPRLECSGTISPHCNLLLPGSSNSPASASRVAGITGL

MAP4K3 (human) = MAP4K3 (human) (UniProt Q8IVH8)
MAPK15 (human) = MAPK15 (human) (UniProt Q8TD08)
MAPKAPK2 (human) = MAPKAPK2 (human) (UniProt P49137)
MARK4 (human) = MARK4 (human) (UniProt Q96L34)
OXSR1 (human) = OXSR1 (human) (UniProt O95747)
PAK3 (human) = PAK3 (human) (UniProt O75914)
PIK3C2B (human) = PIK3C2B (human) (UniProt O00750)
PIK3C2B (human), sequence (O00750 whole entry, looked up): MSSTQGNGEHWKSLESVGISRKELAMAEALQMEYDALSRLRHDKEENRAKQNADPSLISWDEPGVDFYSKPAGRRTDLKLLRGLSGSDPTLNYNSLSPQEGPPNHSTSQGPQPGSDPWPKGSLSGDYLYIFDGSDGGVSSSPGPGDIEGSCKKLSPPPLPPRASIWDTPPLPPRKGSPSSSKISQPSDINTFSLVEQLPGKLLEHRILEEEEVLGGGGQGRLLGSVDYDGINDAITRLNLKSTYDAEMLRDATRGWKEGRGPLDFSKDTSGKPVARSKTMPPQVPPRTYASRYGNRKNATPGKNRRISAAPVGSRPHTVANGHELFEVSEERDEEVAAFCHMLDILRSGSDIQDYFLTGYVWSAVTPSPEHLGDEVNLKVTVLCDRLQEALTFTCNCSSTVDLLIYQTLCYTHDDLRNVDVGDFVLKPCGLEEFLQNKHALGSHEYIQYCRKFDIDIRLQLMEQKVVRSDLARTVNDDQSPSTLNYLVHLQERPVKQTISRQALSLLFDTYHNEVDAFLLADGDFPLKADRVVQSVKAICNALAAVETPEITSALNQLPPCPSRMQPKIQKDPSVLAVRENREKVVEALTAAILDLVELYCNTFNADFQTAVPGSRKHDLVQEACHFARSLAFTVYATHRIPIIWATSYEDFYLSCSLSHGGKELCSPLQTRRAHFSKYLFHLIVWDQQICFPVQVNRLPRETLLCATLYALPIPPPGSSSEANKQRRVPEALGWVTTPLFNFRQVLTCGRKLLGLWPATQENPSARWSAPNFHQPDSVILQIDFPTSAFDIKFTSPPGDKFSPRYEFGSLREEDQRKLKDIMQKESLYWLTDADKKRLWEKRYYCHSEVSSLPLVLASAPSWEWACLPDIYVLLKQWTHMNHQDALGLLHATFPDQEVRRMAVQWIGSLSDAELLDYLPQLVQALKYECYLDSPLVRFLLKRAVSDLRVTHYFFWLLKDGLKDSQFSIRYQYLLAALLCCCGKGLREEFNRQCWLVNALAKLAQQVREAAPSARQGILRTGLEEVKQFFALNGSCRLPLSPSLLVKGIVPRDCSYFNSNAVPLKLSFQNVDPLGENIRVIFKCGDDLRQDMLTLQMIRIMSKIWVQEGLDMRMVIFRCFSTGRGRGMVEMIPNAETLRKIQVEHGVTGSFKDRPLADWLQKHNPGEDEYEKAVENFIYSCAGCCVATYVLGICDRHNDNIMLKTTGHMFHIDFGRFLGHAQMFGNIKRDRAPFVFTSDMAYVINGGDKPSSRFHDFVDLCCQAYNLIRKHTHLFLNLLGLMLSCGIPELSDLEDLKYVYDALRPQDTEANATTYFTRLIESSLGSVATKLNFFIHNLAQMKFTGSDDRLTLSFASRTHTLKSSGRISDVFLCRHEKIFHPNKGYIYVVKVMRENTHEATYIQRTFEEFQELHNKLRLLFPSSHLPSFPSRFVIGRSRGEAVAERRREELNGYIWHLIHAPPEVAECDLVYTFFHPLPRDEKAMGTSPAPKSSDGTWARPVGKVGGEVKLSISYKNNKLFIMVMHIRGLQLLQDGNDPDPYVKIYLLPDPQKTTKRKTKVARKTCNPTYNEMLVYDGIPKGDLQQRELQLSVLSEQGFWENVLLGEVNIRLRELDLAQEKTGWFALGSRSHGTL

PIP4K2C (human) = PIP4K2C (human) (UniProt Q8TBX8)
PIP5K1A (human) = PIP5K1A (human) (UniProt Q99755)
PIP5K1A (human), sequence (Q99755 whole entry, looked up): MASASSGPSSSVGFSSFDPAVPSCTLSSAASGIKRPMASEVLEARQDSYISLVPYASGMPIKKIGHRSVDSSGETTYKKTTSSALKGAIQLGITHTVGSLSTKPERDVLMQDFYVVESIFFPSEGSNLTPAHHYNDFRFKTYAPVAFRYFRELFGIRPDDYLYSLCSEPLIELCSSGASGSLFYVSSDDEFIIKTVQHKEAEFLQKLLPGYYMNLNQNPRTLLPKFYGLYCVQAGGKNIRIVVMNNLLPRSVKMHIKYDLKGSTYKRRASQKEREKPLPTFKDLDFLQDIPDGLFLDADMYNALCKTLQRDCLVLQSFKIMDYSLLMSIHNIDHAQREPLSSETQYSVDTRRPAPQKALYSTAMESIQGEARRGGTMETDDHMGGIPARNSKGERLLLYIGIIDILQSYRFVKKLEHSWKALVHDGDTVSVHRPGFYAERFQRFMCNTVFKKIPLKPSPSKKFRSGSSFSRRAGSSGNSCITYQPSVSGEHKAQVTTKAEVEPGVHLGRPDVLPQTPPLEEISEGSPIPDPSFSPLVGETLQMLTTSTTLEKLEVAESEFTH

PRKACB (human) = PRKACB (human) (UniProt P22694)
PRKCD (human) = PRKCD (human) (UniProt Q05655)
PRKCQ (human) = PRKCQ (human) (UniProt Q04759)
PTK2 (human) = PTK2 (human) (UniProt Q05397)
RPS6KA1 KD2 (human) = RPS6KA1 KD2 (human) (UniProt Q15418)
SRPK1 (human) = SRPK1 (human) (UniProt Q96SB4)
STK25 (human) = STK25 (human) (UniProt O00506)
STK32C (human) = STK32C (human) (UniProt Q86UX6)
STK36 (human) = STK36 (human) (UniProt Q9NRP7)
TAOK2 (human) = TAOK2 (human) (UniProt Q9UL54)
TIE1 (human) = TIE1 (human) (UniProt P35590)
TRPM6 (human) = TRPM6 (human) (UniProt Q9BX84)
TYRO3 (human) = TYRO3 (human) (UniProt Q06418)
WEE2 (human) = WEE2 (human) (UniProt P0C1S8)

CDK16 (human), sequence (Q00536 whole entry, looked up): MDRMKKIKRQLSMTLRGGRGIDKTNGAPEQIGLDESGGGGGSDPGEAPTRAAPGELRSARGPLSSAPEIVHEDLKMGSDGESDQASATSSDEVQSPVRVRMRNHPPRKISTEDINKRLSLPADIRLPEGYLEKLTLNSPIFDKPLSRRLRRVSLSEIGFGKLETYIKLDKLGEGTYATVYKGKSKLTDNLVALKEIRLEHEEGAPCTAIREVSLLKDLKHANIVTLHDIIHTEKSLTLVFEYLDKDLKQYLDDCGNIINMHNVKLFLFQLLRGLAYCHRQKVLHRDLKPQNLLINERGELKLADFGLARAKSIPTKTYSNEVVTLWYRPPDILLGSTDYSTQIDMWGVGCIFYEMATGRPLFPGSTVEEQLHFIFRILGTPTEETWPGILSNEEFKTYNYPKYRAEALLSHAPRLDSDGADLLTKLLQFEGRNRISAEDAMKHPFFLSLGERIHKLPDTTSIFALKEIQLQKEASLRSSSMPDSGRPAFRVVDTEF
ACVR1B (human), sequence (P36896 whole entry, looked up): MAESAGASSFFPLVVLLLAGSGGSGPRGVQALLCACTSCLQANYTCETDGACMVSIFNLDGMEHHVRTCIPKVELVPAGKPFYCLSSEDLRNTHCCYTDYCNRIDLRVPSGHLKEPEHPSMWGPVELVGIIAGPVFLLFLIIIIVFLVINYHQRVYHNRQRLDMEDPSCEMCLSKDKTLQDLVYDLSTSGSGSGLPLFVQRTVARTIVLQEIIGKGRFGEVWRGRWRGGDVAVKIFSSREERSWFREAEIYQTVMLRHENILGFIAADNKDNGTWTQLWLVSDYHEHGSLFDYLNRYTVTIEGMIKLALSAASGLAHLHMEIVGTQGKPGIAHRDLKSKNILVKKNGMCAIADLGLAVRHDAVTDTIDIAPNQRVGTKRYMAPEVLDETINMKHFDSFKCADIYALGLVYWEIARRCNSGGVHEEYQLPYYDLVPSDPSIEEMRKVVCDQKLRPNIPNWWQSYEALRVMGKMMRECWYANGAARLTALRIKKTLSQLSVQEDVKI

With `COc1cc2c(Nc3ccc(NC(=O)c4ccccc4)cc3)ncnc2cc1OCCCN1CCOCC1` the kinase still bound, per cent of control (ACVR1B (human)) was 100%, the kinase still bound, per cent of control (BMPR2 (human)) was 81% and the kinase still bound, per cent of control (CDC42BPB (human)) was 100%. It also gave a kinase still bound, per cent of control (CDK16 (human)) of 64%, a kinase still bound, per cent of control (CDK4 CCND1 (human)) of 93% and a kinase still bound, per cent of control (CDKL5 (human)) of 46%. It also gave a kinase still bound, per cent of control (CLK2 (human)) of 80%, a kinase still bound, per cent of control (CSK (human)) of 7.9% and a kinase still bound, per cent of control (EPHA3 (human)) of 60%. The kinase still bound, per cent of control (FGR (human)) was 19%, the kinase still bound, per cent of control (FYN (human)) was 55% and the kinase still bound, per cent of control (HIPK1 (human)) was 14%. For the same compound, the kinase still bound, per cent of control (IGF1R (human)) was 100%, the kinase still bound, per cent of control (IRAK4 (human)) was 51% and the kinase still bound, per cent of control (MAP2K1 (human)) was 0.1%. It also gave a kinase still bound, per cent of control (MAP3K13 (human)) of 27%, a kinase still bound, per cent of control (MAP4K1 (human)) of 60% and a kinase still bound, per cent of control (MAP4K3 (human)) of 70%. For the same compound, the kinase still bound, per cent of control (MAPK15 (human)) was 100%, the kinase still bound, per cent of control (MAPKAPK2 (human)) was 100% and the kinase still bound, per cent of control (MARK4 (human)) was 100%. For the same compound, the kinase still bound, per cent of control (OXSR1 (human)) was 100%, the kinase still bound, per cent of control (PAK3 (human)) was 87% and the kinase still bound, per cent of control (PIK3C2B (human)) was 100%. For the same compound, the kinase still bound, per cent of control (PIP4K2C (human)) was 53%, the kinase still bound, per cent of control (PIP5K1A (human)) was 100% and the kinase still bound, per cent of control (PRKACB (human)) was 100%. For the same compound, the kinase still bound, per cent of control (PRKCD (human)) was 100%, the kinase still bound, per cent of control (PRKCQ (human)) was 100% and the kinase still bound, per cent of control (PTK2 (human)) was 62%. The kinase still bound, per cent of control (RPS6KA1 KD2 (human)) was 72%, the kinase still bound, per cent of control (SRPK1 (human)) was 100% and the kinase still bound, per cent of control (STK25 (human)) was 63%. The kinase still bound, per cent of control (STK32C (human)) was 100%, the kinase still bound, per cent of control (STK36 (human)) was 98% and the kinase still bound, per cent of control (TAOK2 (human)) was 94%. The kinase still bound, per cent of control (TIE1 (human)) was 27%, the kinase still bound, per cent of control (TRPM6 (human)) was 98% and the kinase still bound, per cent of control (TYRO3 (human)) was 60%. The kinase still bound, per cent of control (WEE2 (human)) was 100%.
With `O=c1[nH]c2ccccc2n1C1CCN(Cc2ccc(-c3nc4cc5[nH]cnc5cc4nc3-c3ccccc3)cc2)CC1` the kinase still bound, per cent of control (ACVR1B (human)) was 100%, the kinase still bound, per cent of control (BMPR2 (human)) was 100% and the kinase still bound, per cent of control (CDC42BPB (human)) was 83%. It also gave a kinase still bound, per cent of control (CDK16 (human)) of 97%, a kinase still bound, per cent of control (CDK4 CCND1 (human)) of 100% and a kinase still bound, per cent of control (CDKL5 (human)) of 86%. It also gave a kinase still bound, per cent of control (CLK2 (human)) of 90%, a kinase still bound, per cent of control (CSK (human)) of 93% and a kinase still bound, per cent of control (EPHA3 (human)) of 82%. For the same compound, the kinase still bound, per cent of control (FGR (human)) was 100%, the kinase still bound, per cent of control (FYN (human)) was 100% and the kinase still bound, per cent of control (HIPK1 (human)) was 69%. The kinase still bound, per cent of control (IGF1R (human)) was 100%, the kinase still bound, per cent of control (IRAK4 (human)) was 80% and the kinase still bound, per cent of control (MAP2K1 (human)) was 83%. For the same compound, the kinase still bound, per cent of control (MAP3K13 (human)) was 100%, the kinase still bound, per cent of control (MAP4K1 (human)) was 51% and the kinase still bound, per cent of control (MAP4K3 (human)) was 100%. The kinase still bound, per cent of control (MAPK15 (human)) was 100%, the kinase still bound, per cent of control (MAPKAPK2 (human)) was 100% and the kinase still bound, per cent of control (MARK4 (human)) was 99%. The kinase still bound, per cent of control (OXSR1 (human)) was 81%, the kinase still bound, per cent of control (PAK3 (human)) was 72% and the kinase still bound, per cent of control (PIK3C2B (human)) was 54%. The kinase still bound, per cent of control (PIP4K2C (human)) was 83%, the kinase still bound, per cent of control (PIP5K1A (human)) was 88% and the kinase still bound, per cent of control (PRKACB (human)) was 100%. The kinase still bound, per cent of control (PRKCD (human)) was 81%, the kinase still bound, per cent of control (PRKCQ (human)) was 94% and the kinase still bound, per cent of control (PTK2 (human)) was 95%. It also gave a kinase still bound, per cent of control (RPS6KA1 KD2 (human)) of 100%, a kinase still bound, per cent of control (SRPK1 (human)) of 99% and a kinase still bound, per cent of control (STK25 (human)) of 97%. For the same compound, the kinase still bound, per cent of control (STK32C (human)) was 87%, the kinase still bound, per cent of control (STK36 (human)) was 74% and the kinase still bound, per cent of control (TAOK2 (human)) was 85%. It also gave a kinase still bound, per cent of control (TIE1 (human)) of 100%, a kinase still bound, per cent of control (TRPM6 (human)) of 87% and a kinase still bound, per cent of control (TYRO3 (human)) of 73%. It also gave a kinase still bound, per cent of control (WEE2 (human)) of 96%.
